How the values were obtained:
Format in all cases: cell-based
[1] = cytotoxicity assay in 293 cells; parameters: key to effect of inhibiting tumor cell growth: “+” represents that the compound has the effect of inhibiting tumor cell growth; conditions: 293
[2] = test system: kidney cancer cells (293); test: cytotoxicity assay in 293 cells; parameters: key to effect of inhibiting tumor cell growth: “+” represents that the compound has the effect of inhibiting tumor cell growth; conditions: Homo sapiens, HEK293
[3] = cytotoxicity assay in HNOF cells; parameters: key to effect of inhibiting tumor cell growth: “+” represents that the compound has the effect of inhibiting tumor cell growth; conditions: human, HNOF cells
HNOF = test: cytotoxicity assay in HNOF cells; parameters: key to effect of inhibiting tumor cell growth: “+” represents that the compound has the effect of inhibiting tumor cell growth; conditions: HNOF
lung cancer cells (A549) = test: cytotoxicity assay in A549 cells; parameters: key to effect of inhibiting tumor cell growth: “+” represents that the compound has the effect of inhibiting tumor cell growth; conditions: for IC50: Homo sapiens
How it was run: (§1)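 Cells are treated with each Formula (I) compound, viability loss is measured, and the IC50 is derived.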

[4] = test system: lung cancer cells (H1299); test: cytotoxicity assay in H1299 cells; parameters: key to effect of inhibiting tumor cell growth: “+” represents that the compound has the effect of inhibiting tumor cell growth; conditions: for effect of inhibiting tumor cell growth: H1299; for IC50: Homo sapiens, NCI-H1299
How it was run: as §1

lung cancer cells (TC1) = test: cytotoxicity assay in TC1 cells; parameters: key to effect of inhibiting tumor cell growth: “+” represents that the compound has the effect of inhibiting tumor cell growth; conditions: for IC50: TC-1
How it was run: as §1

[5] = test system: lung cancer cells (Bm7brmx2); test: cytotoxicity assay in Bm7brmx2 cells; parameters: key to effect of inhibiting tumor cell growth: “+” represents that the compound has the effect of inhibiting tumor cell growth
How it was run: as §1

[6] = test system: lung cancer cells (Bm7brmx2-1st); test: cytotoxicity assay in Bm7brmx2-1st cells; parameters: key to effect of inhibiting tumor cell growth: “+” represents that the compound has the effect of inhibiting tumor cell growth
How it was run: as §1

[7] = test system: lung cancer cells (Bm7brmx2-2nd); test: cytotoxicity assay in Bm7brmx2-2nd cells; parameters: key to effect of inhibiting tumor cell growth: “+” represents that the compound has the effect of inhibiting tumor cell growth
How it was run: as §1

Bm7 lung cancer cells = test: cytotoxicity assay, FIG. 1B and Table 2 summary
Method: (§2) Please refer to FIG. 1A, FIG. 1B and Table 2, which show the analysis results of the compound of Formula (I) inhibiting ADAM9 activity. In FIG. 1A, Bm7 lung cancer cells were treated with the derivatives of the compound 6X-0310, and then cultured under anchorage-free culture condition. The expressions of ADAM9 and CDCP1 in Bm7 lung cancer cells were detected by Western blot, in which EF1α is an internal control, and mock represents Bm7 lung cancer cells without treatment. […] In the experiment, the compounds of Formula (I) of Example 1 to Example 32 were further performed cytotoxicity assay to measure the IC50 value of the compounds of Formula (I) of the present disclosure in lung cancer cell lines.

[8] = test system: CDCP1 in Bm7 lung cancer cells; test: Western blot of ADAM9 and CDCP1 expression in Bm7 cells; conditions: anchorage-free culture
Method: as §2

SMILES	effect of inhibiting tumor cell growth [1]	IC50 [2]	IC50 [3]	effect of inhibiting tumor cell growth (HNOF)	effect of inhibiting tumor cell growth (lung cancer cells (A549))	IC50 (lung cancer cells (A549))	effect of inhibiting tumor cell growth [4]	IC50 [4]	effect of inhibiting tumor cell growth (lung cancer cells (TC1))	IC50 (lung cancer cells (TC1))	IC50 [5]	effect of inhibiting tumor cell growth [5]	IC50 [6]	effect of inhibiting tumor cell growth [6]	IC50 [7]	effect of inhibiting tumor cell growth [7]	tumor cell cytotoxicity compared with the core structure compound 6X-0310 (Bm7 lung cancer cells)	expression of CDCP1 [8]
COc1ccc(OC)c(/C=N/Nc2nc(CCN3C(=O)c4ccccc4C3=O)cs2)c1 [2X-0295]	+	77.4 µM	78.4 µM	+	+	1020 µM	+	72 µM	+	79 µM	75.2 µM	+	53.2 µM	+	267 µM	+	stronger tumor cell cytotoxicity	reduce the expression of CDCP1
CSc1ccc(/C=C(/C#N)c2nc(CCN3C(=O)c4ccccc4C3=O)cs2)cc1 [4X-0296]	+	79.2 µM	96.2 µM	+	+	167 µM	+	94.5 µM	+	73.6 µM	92 µM	+	39.3 µM	+	447 µM	+	stronger tumor cell cytotoxicity	reduce the expression of CDCP1
O=C1c2ccccc2C(=O)N1CCc1csc(COc2ccccc2Cl)n1 [12W-0264]	+	59.7 µM	> 125 µM	+	+	162 µM	+	138 µM	+	88.9 µM	99.2 µM	+	40.9 µM	+	151 µM	+	stronger tumor cell cytotoxicity	reduce the expression of CDCP1
